Data as given in PubChem BioAssay AID1259407 (Chemical Carcinogenesis Research Information System (CCRIS), 2018).
“Also recorded” adds a separate entry of the source. Active and inactive are the calls of the source. The rule behind the calls is not given here.

Test system: CCRIS mutagenicity, Ames/micronucleus/aberration tests
Test: CCRIS mutagenicity studies

CC(=O)Nc1ccc2c(c1)Cc1ccccc1-2
mutagenic call (End Point: IN VITRO MICRONUCLEUS, Test System: AHH-1 CELLS, Metabolic Activation: NONE): active; positive
mutagenic call (End Point: IN VITRO MICRONUCLEUS, Test System: MCL-5 CELLS, Metabolic Activation: NONE): active; positive
mutagenic call (End Point: IN VITRO MICRONUCLEUS, Test System: V79 CELLS, Metabolic Activation: RAT, LIVER, S-9, AROCLOR 1254): active; positive
mutagenic call (End Point: In vivo micronucleus, Test System: Micronucleated hepatocytes, Species: Rat, Strain/Sex: F344/Male, Route: Oral): active; positive (p<0.01 at highest dose); also recorded: active; positive (p<0.05 at lower dose and p<0.01 at higher dose)
mutagenic call (Test System: AMES SALMONELLA TYPHIMURIUM, Strain/Indicator: DJ400, Metabolic Activation: HUMAN, HEPATOMA CELLS, BENZO[A]ANTHRACENE, Method: PREINCUBATION): active; positive
mutagenic call (Test System: AMES SALMONELLA TYPHIMURIUM, Strain/Indicator: DJ400, Metabolic Activation: HUMAN, HEPATOMA CELLS, Method: PREINCUBATION): active; positive
mutagenic call (Test System: AMES SALMONELLA TYPHIMURIUM, Strain/Indicator: DJ400, Metabolic Activation: RAT, LIVER, S-9, AROCLOR 1254, Method: PREINCUBATION): active; positive
mutagenic call (Test System: AMES SALMONELLA TYPHIMURIUM, Strain/Indicator: DJ400, Metabolic Activation: RAT, LIVER, S-9, Method: PREINCUBATION): active; positive
mutagenic call (Test System: AMES SALMONELLA TYPHIMURIUM, Strain/Indicator: DJ460, Metabolic Activation: HUMAN, HEPATOMA CELLS, BENZO[A]ANTHRACENE, Method: PREINCUBATION): active; positive
mutagenic call (Test System: AMES SALMONELLA TYPHIMURIUM, Strain/Indicator: DJ460, Metabolic Activation: HUMAN, HEPATOMA CELLS, Method: PREINCUBATION): active; positive
mutagenic call (Test System: AMES SALMONELLA TYPHIMURIUM, Strain/Indicator: DJ460, Metabolic Activation: RAT, LIVER, S-9, AROCLOR 1254, Method: PREINCUBATION): active; positive
mutagenic call (Test System: AMES SALMONELLA TYPHIMURIUM, Strain/Indicator: DJ460, Metabolic Activation: RAT, LIVER, S-9, Method: PREINCUBATION): active; positive
mutagenic call (Test System: AMES SALMONELLA TYPHIMURIUM, Strain/Indicator: TA97, Metabolic Activation: NONE, Method: STANDARD PLATE): inactive; negative
mutagenic call (Test System: AMES SALMONELLA TYPHIMURIUM, Strain/Indicator: TA97, Metabolic Activation: RAT, LIVER, S-9, AROCLOR 1254, Method: STANDARD PLATE): inactive; negative
mutagenic call (Test System: AMES SALMONELLA TYPHIMURIUM, Strain/Indicator: TA98, Metabolic Activation: GUINEA PIG, LIVER, HEPATOCYTES): active; positive
mutagenic call (Test System: AMES SALMONELLA TYPHIMURIUM, Strain/Indicator: TA98, Metabolic Activation: GUINEA PIG, LIVER, S-9, Method: STANDARD PLATE): active; positive
mutagenic call (Test System: AMES SALMONELLA TYPHIMURIUM, Strain/Indicator: TA98, Metabolic Activation: HAMSTER, LIVER, HEPATOCYTES): active; positive
mutagenic call (Test System: AMES SALMONELLA TYPHIMURIUM, Strain/Indicator: TA98, Metabolic Activation: HAMSTER, LIVER, S-9, Method: STANDARD PLATE): active; positive
mutagenic call (Test System: AMES SALMONELLA TYPHIMURIUM, Strain/Indicator: TA98, Metabolic Activation: HUMAN, FETAL LIVER, S-9): inactive; negative
mutagenic call (Test System: AMES SALMONELLA TYPHIMURIUM, Strain/Indicator: TA98, Metabolic Activation: HUMAN, HEPATOMA CELLS, BENZO[A]ANTHRACENE, Method: PREINCUBATION): active; positive
mutagenic call (Test System: AMES SALMONELLA TYPHIMURIUM, Strain/Indicator: TA98, Metabolic Activation: HUMAN, HEPATOMA CELLS, Method: PREINCUBATION): active; positive
mutagenic call (Test System: AMES SALMONELLA TYPHIMURIUM, Strain/Indicator: TA98, Metabolic Activation: HUMAN, RED BLOOD CELL, CYTOSOL, Method: PREINCUBATION): active; positive
mutagenic call (Test System: AMES SALMONELLA TYPHIMURIUM, Strain/Indicator: TA98, Metabolic Activation: MOUSE, LIVER, HEPATOCYTES): inactive; negative
mutagenic call (Test System: AMES SALMONELLA TYPHIMURIUM, Strain/Indicator: TA98, Metabolic Activation: MOUSE, LIVER, S-9, Method: STANDARD PLATE): active; positive
mutagenic call (Test System: AMES SALMONELLA TYPHIMURIUM, Strain/Indicator: TA98, Metabolic Activation: NONE, Method: SPIRAL ASSAY): inactive; negative
mutagenic call (Test System: AMES SALMONELLA TYPHIMURIUM, Strain/Indicator: TA98, Metabolic Activation: NONE, Method: STANDARD PLATE): inactive; negative
mutagenic call (Test System: AMES SALMONELLA TYPHIMURIUM, Strain/Indicator: TA98, Metabolic Activation: RABBIT, LIVER, MICROSOMAL FRACTION, Method: STANDARD PLATE): active; positive
mutagenic call (Test System: AMES SALMONELLA TYPHIMURIUM, Strain/Indicator: TA98, Metabolic Activation: RABBIT, LUNG, MICROSOMAL FRACTION, Method: STANDARD PLATE): active; positive
mutagenic call (Test System: AMES SALMONELLA TYPHIMURIUM, Strain/Indicator: TA98, Metabolic Activation: RAT, BLADDER, S-9, PCB, Method: FLUCTUATION TEST): inactive; negative
mutagenic call (Test System: AMES SALMONELLA TYPHIMURIUM, Strain/Indicator: TA98, Metabolic Activation: RAT, LIVER, HEPATOCYTES): inactive; negative
mutagenic call (Test System: AMES SALMONELLA TYPHIMURIUM, Strain/Indicator: TA98, Metabolic Activation: RAT, LIVER, S-9, ACRYLAMIDE, Method: STANDARD PLATE): active; positive
mutagenic call (Test System: AMES SALMONELLA TYPHIMURIUM, Strain/Indicator: TA98, Metabolic Activation: RAT, LIVER, S-9, AROCLOR 1254, Method: PREINCUBATION): active; positive
mutagenic call (Test System: AMES SALMONELLA TYPHIMURIUM, Strain/Indicator: TA98, Metabolic Activation: RAT, LIVER, S-9, AROCLOR 1254, Method: SPIRAL ASSAY): active; positive
mutagenic call (Test System: AMES SALMONELLA TYPHIMURIUM, Strain/Indicator: TA98, Metabolic Activation: RAT, LIVER, S-9, PHENOBARBITAL, Method: STANDARD PLATE): active; positive
mutagenic call (Test System: AMES SALMONELLA TYPHIMURIUM, Strain/Indicator: TA98, Metabolic Activation: RAT, LIVER, S-9, Method: PREINCUBATION): active; positive
mutagenic call (Test System: AMES SALMONELLA TYPHIMURIUM, Strain/Indicator: TA98, Metabolic Activation: RAT, LIVER, S-9, Method: STANDARD PLATE): active; positive
mutagenic call (Test System: AMES SALMONELLA TYPHIMURIUM, Strain/Indicator: TA100, Metabolic Activation: NONE, Method: SPIRAL ASSAY): inactive; negative
mutagenic call (Test System: AMES SALMONELLA TYPHIMURIUM, Strain/Indicator: TA100, Metabolic Activation: NONE, Method: STANDARD PLATE): inactive; negative
mutagenic call (Test System: AMES SALMONELLA TYPHIMURIUM, Strain/Indicator: TA100, Metabolic Activation: RAT, BLADDER, S-9, PCB, Method: FLUCTUATION TEST): inactive; negative
mutagenic call (Test System: AMES SALMONELLA TYPHIMURIUM, Strain/Indicator: TA100, Metabolic Activation: RAT, LIVER, S-9, ACRYLAMIDE, Method: STANDARD PLATE): active; positive
mutagenic call (Test System: AMES SALMONELLA TYPHIMURIUM, Strain/Indicator: TA100, Metabolic Activation: RAT, LIVER, S-9, AROCLOR 1254, Method: SPIRAL ASSAY): inactive; negative
mutagenic call (Test System: AMES SALMONELLA TYPHIMURIUM, Strain/Indicator: TA100, Metabolic Activation: RAT, LIVER, S-9, KC500 OR PHENOBARBITAL, Method: LIQUID SUSPENSION): active; positive
mutagenic call (Test System: AMES SALMONELLA TYPHIMURIUM, Strain/Indicator: TA100, Metabolic Activation: RAT, LIVER, S-9, PHENOBARBITAL, Method: STANDARD PLATE): active; positive
mutagenic call (Test System: AMES SALMONELLA TYPHIMURIUM, Strain/Indicator: TA1535, Metabolic Activation: NONE, Method: SPIRAL ASSAY): inactive; negative
mutagenic call (Test System: AMES SALMONELLA TYPHIMURIUM, Strain/Indicator: TA1535, Metabolic Activation: NONE, Method: STANDARD PLATE): inactive; negative
mutagenic call (Test System: AMES SALMONELLA TYPHIMURIUM, Strain/Indicator: TA1535, Metabolic Activation: RAT, LIVER, S-9, AROCLOR 1254, Method: SPIRAL ASSAY): inactive; negative
mutagenic call (Test System: AMES SALMONELLA TYPHIMURIUM, Strain/Indicator: TA1535, Metabolic Activation: RAT, LIVER, S-9, AROCLOR 1254, Method: STANDARD PLATE): inactive; negative
mutagenic call (Test System: AMES SALMONELLA TYPHIMURIUM, Strain/Indicator: TA1537, Metabolic Activation: NONE, Method: SPIRAL ASSAY): inactive; negative
